Measured values taken from patent US9648880B2, “Antifungal agents and uses thereof” (University of Massachusetts, priority 2012, dated 2017).

How the values were obtained:
[1] = test system: C. elegans infected with C. albicans; test: C. elegans pathogenesis assay; type: in vivo, Caenorhabditis elegans; details: 12.5 μM
Protocol: We therefore tested whether compound #4 can alter fungal infections in two in vivo settings. First, we performed pathogenesis assays in which nematodes (Caenorhabditis elegans) are infected with C. albicans, resulting in killing of the nematode host (Jain, 2009; Okoli, 2009). We used this assay to test whether compound #4 might have a protective effect, exposing C. elegans to Candida albicans and either DMSO vehicle, the commonly used antifungal drug fluconazole at 12.5 μM, or compound #4 at the same concentration. […] Therefore, consistent with its in vitro activities, compound #4 functions as an antifungal agent in this model infection system.
Three worms in the L3/L4 stage were transferred to each of two NGM agar plates containing E. coli OP50 and grown at 20° C. for four days. On the day of the experiment, worms were washed off the plates with M9 buffer and centrifuged at 900×g for 2 min. The supernatant was removed, and the worms were then resuspended in a bleach solution (1:4 dilution of commercial bleach (5.25%) diluted in 0.25 M sodium hydroxide). The worm suspension was mixed gently by inversion for 3 min, and centrifuged for 2 min at 2,000×g. The pellet containing the eggs was washed with M9 buffer and centrifuged at 2,000×g for 2 min and then resuspended in 500 μl M9 buffer. […]

[2] = test system: C. albicans SC5314-GFP biofilm; test: biofilm formation on silicone elastomers; type: cell-based, Candida albicans; details: for biofilm formation, visual inspection: silicone mesh
Protocol: FIGS. 5A-5C. Effect of small molecules on biofilm formation in vitro. FIG. 5A is a series of photographs showing biofilm formation on silicone elastomers. Biofilm assay was performed with SC5314-GFP and edt1^Δ/Δ-GFP and photographed after 60 hrs. Indicated compounds were added at 50 μM. Turbid medium indicates planktonic cells unattached to silicone elastomers when biofilm formation is inhibited. Clear medium with the cell attached to the silicone elastomer indicate establishment of functional biofilm. Each treatment was done in triplicate. FIG. 5B is a graph showing quantitation of turbidity of medium. Media was removed from the wells, vortexed vigorously and the OD at 600 nm was measured in a spectrophotometer. FIG. 5C is a graph showing quantitation of dry weight of biofilm. Dry weight in mg of air-dried silicone elastomers.
Fungal biofilm formation on implanted medical devices is a serious medical problem because these biofilms can lead to life-threatening systemic infections. An established in vitro assay to study device colonization makes use of silicone mesh as a surrogate surface (Nobile, 2006). We tested how the compounds that affected polystyrene adhesion (FIG. 1) would affect biofilm formation by visual inspection of the biofilms formed, by measuring the optical density of the supernatant liquid cultures, and by measuring their dry weights. […] Therefore, compounds #4 and Q1 were effective inhibitors of both hyphal morphogenesis (FIG. 4) and biofilm formation on silicone mesh (FIG. 5).
We adapted a published method (Nobile, 2006, supra). Autoclaved, pre-weighed silicone mesh squares (Bentec, Catalog Number PR72034-04N) were incubated overnight at 37° C. with undiluted bovine serum. Following washing with PBS, the squares were transferred to 12-well plates and incubated with 0.5 OD/ml SC5314-GFP cells in Spider medium (with or without drugs as indicated), for 90 min at 37° C., shaking at 200 rpm. Squares were washed in PBS and transferred to new 12-well plates containing fresh Spider medium with fresh drugs and incubated for 60 hrs in a 37° C. shaker at 200 rpm. The plates were then photographed, the liquid media were collected for A600 nm measurements, and the dry weights of the bound biofilms were measured following drying of the silicone squares in a chemical hood.

C. albicans SC5314 = test: alamarBlue-based polystyrene adhesion assay; type: cell-based, Candida albicans
Excerpt: We prioritized the candidate compounds by testing the dose-dependence of their effects. Because of the laborious washing required to remove background crystal violet dye staining, we developed adhesion assays using alternative detection reagents. Previous experiments screens have used the vital dye alamarBlue to measure Candida viability (Lafleur, J. Antimicrob Chemother. 66: 820-826, 2011; Youngsaye supra), so we tested this reagent as a way to measure cells remaining adhered after washing. […] The majority of the reordered compounds were effective at reducing Candida adhesion at 50 μM, the concentration originally tested during the screen. […] Although compounds that were still effective at 25 μM were less generally less so at 7.5 μM (FIG. 1C), many candidates still reduced adhesion by >50% at this lower concentration.
Overnight cultures of SC5314 and edt1^−/− cells were grown and plated onto Immulon 2HB 96-well microtiter plates and treated with small molecules as described above. Following incubations, media was decanted and plates were washed twice with 100 μl/well PBS. alamarBlue (Life Technologies) was resuspended to a final concentration of 5% in RPMI buffered with 0.165 M MOPS and then 100 μl was added to each well, followed by further incubation for 2 hours at 37° C. Fluorescence signals at 555Ex/585Em were read using a SpectraMax M5 Plate reader (Molecular Devices).

[3] = test system: C. albicans hyphae formation; test: filamentation assay (hyphal morphogenesis); type: cell-based, Candida albicans; details: for inhibition of hyphal formation and induction of RFP: 12.5 μM, Spider media 16 hours, HWP1-RFP reporter; for formation of hyphae: Spider media, HWP1-RFP reporter (Example 14)
Excerpt: Because the ability to interconvert between yeast and hyphal morphologies is usually correlated with pathogenicity (Finkel, 2010), we explored this observation in more detail. First, we assessed the effect of our compounds on the induction of hyphae by “Spider” media (Chauhan, 2009). For this experiment, we used a strain that contains the hyphal-specific HWP1 promoter to the Red Fluorescent Protein (RFP) open reading frame (Ganguly, 2011), which provides a molecular reporter for hyphae formation that we used in addition to visual examination of cell morphology. We initially tested each of the compounds that inhibit adhesion to polystyrene (FIG. 1B), as well as compounds #9, Q1 and Q2 (FIG. 3A), at concentration of 12.5 μM. […] Compounds Q1 and Q2 share a “Scaffold 1” backbone with compounds #4 and #9, but contain a quinoline group (FIG. 3A). Therefore, the compounds with a quinoline group can inhibit hyphae formation, but not adhesion to polystyrene or human cells (FIG. 3). […] Additionally, multiple chemical backbones are able to inhibit hyphae formation, because compound #12 has a “Scaffold 2” backbone (Table 2). To better discriminate the inhibitory compounds, we tested #4, 12 and Q1 at lower concentrations. […] Furthermore, as in the polystyrene adhesion assay (FIG. 8), compound #4 is effective at inhibiting hyphae formation at concentrations >2.5 μM.
Overnight cultures of SC5314 or SGH584 were pregrown in uridine-supplemented SC media at 30° C. to an OD600>13 and diluted 1:10 into prewarmed Spider medium (1% Peptone (Difco), 1% Mannitol (Sigma) and 0.2% K2HPO4 (Sigma) (Chauhan, 2009) in glass tubes and grown for 16 hrs at 37° C. shaking at 200 rpm in the presence or absence of drugs as indicated. DIC and fluorescence images were acquired using a Zeiss Axiovert 200 inverted microscope equipped with a Qicam 12-bit Fast 1394 digital CCD camera (Qimaging). Image acquisition was carried out using Openlab 5 software (Improvison).
Because the ability to interconvert between yeast and hyphal morphologies is usually correlated with pathogenicity, we explored this in more detail, examining induction of hyphae upon carbon starvation (using Spider media). We used a strain that contains the Red Fluorescent Protein (RFP) open reading frame driven by the hyphal-specific HWP1 promoter (Ganguly et al., Eukaryotic Cell 10:1448, 2011), which provides a molecular reporter for hyphae formation in addition to cell morphology. […] Therefore, the shared backbone of these compounds correlates with inhibition of multiple activities.
Hyphal morphogenesis is induced by multiple stimuli that act via multiple signal transduction pathways and is mediated by a complex transcriptional network. […] We detected morphological difference between control and compound #4-treated cultures as early as 60 minutes in 10% serum, and 90 minutes in Spider media.

Row | SMILES | biofilm formation, visual inspection ([2]; 50 μM, 60 hrs) | inhibition of hyphal formation and induction of RFP [3] | formation of hyphae [3] | also measured
1 | OC(Cn1cncn1)(Cn1cncn1)c1ccc(F)cc1F [fluconazole, reference compound] |  |  |  | lifespan of infected worms [1]: increased the lifespan of the infected worms
2 | Cc1cc(C)n(CC(O)Cn2c3ccc(Cl)cc3c3cc(Cl)ccc32)c(=O)n1 (centres unmarked) [Compound 21] | most effectively kept the cells dispersed in the media rather than on the mesh |  |  | media density (OD 600 nm) ([2]; 50 μM, 60 hrs): more modest than for the other compounds tested
3 | COc1ccc(C(=O)Nc2cccc(Cl)c2)cc1Br [Compound 12] | most effectively kept the cells dispersed in the media rather than on the mesh | most potently inhibited hyphal formation and induction of RFP |  | synergy on adhesion upon combining compound #4 and compound #12 (C. albicans SC5314; #4 1.5 μM with #12 4 and 6 μM): did not further reduce adhesion; effect on adhesion of compound alone (C. albicans SC5314; compound #4 1.5 μM, compound #12 4 and 6 μM): partial effects; hyphae formation induced by Spider media ([3]; 5 μM): A few hyphae were observed; hyphae formation induced by Spider media ([3]; 10 μM): completely blocked the hyphae formation
4 | CCOc1ccc(NC(=O)c2c(NC(=O)CNCCc3ccccc3)sc3c2CCC3)cc1 [Compound 14] |  |  | blocked formation of hyphae | 
5 | Cc1ccc(N2CCN(C(=O)c3ccccc3)CC2)cc1Cl [Compound 8] |  | did not block hyphal formation as efficiently |  | 
6 | Cc1ccc(C(=O)N2CCN(c3ccc(Cl)cc3)CC2)cc1C [Compound 7] | most effectively kept the cells dispersed in the media rather than on the mesh | did not block hyphal formation as efficiently |  | 
7 | O=C(NCCC12CC3CC(CC(C3)C1)C2)c1ccc(S(=O)(=O)N2CCOCC2)cc1 [Compound 26] |  |  | blocked formation of hyphae | 
8 | O=C(c1csc2ccccc12)N1CCN(c2ccc(Cl)c(Cl)c2)CC1 [Compound 3] |  | did not block hyphal formation as efficiently |  | 
9 | COc1ccc(N2CCN(C(=O)CCCN3C(=O)c4cccc5cccc(c45)C3=O)CC2)cc1 [Compound 27] |  |  | blocked formation of hyphae | biofilm formation on silicone mesh ([2]; Example 14): effective inhibitors of both hyphal morphogenesis and biofilm formation on silicone mesh
